# Measured values: US9597360B2, “Method of treatment for pulpitis and/or enhancement for dentinogenesis” (National Center for Geriatrics and Gerontology, priority 2008, dated 2017)
# What was measured:
# HUVEC [1] = test: Modified Boyden chamber migration assay; assay type: cell-based, human
# Protocol: Modified Boyden chamber assay was performed at 37° C. with a PET membrane (BD Bioscience, Franklin Lakes, N.J.) of 24 well for 24 hours. In the presence of 10 ng/ml of MMP3, 100 ng/ml of MMP3, 100 ng/ml of MMP3 and 0.13 μmol of NNGH, 50 ng/ml of MMP10, 50 ng/ml of MMP10 and 0.13 μmol of NNGH, 0.13 μmol of NNGH only, or 50 ng/ml of VEGF-A, 5×10^4 cells of HUVEC was cultured in the upper part of the chamber. As a control, a 0.02% bovine serum albumin (Sigma) was used. After incubations, HUVEC which migrated to the lower part of the membrane was detached by trypsin treatment and counted. […] The data represented the mean±SD of 4 samples.
# HUVEC [2] = test: Anti-apoptotic effect, staurosporine-induced apoptosis (Annexin V-FITC/Propidium Iodide flow cytometry); assay type: cell-based, human
# Protocol: NNGH was added 30 minutes before adding MMP3. As a control, cells were cultured in EBM-2 without adding any in the presence of staurosporine. Four hours later, HUVEC was detached from the dish and stained with Annexin V-FITC (Roche) and Propidium Iodide (Sigma) in a cell suspension for 15 minutes and measured ratio of necrosis and apoptosis in flow cytometer JSAN (Bay Bioscience, Kobe).
# [3] = test system: Human umbilical vein endothelial cells (HUVECs); test: Proliferative effect on endothelial cells (Tetra-color one, 450 nm absorbance); assay type: cell-based; conditions: HUVEC
# Protocol: Human umbilical vein endothelial cells (HUVECs) (KURABO Industries, Osaka,) were seeded with 1,000 cells per 96 well. […] Ten μl of Tetra-color one (Seikagaku Kogyo, Co., Tokyo, Japan) was added to the 96 well plate, and cell numbers were measured using spectrophotometer at 450 nm absorbance at 2, 12, 24, 36, 48, 60 hours of culture. Wells without cells were served as negative controls.
# [4] = test system: amputated pulp of rat upper incisor; test: Rat pulp amputated model; assay type: in vivo
# Protocol: After pulpotomy of rat upper incisor, and wash with a saline, 50 ng of MMP3 adsorbed in spongel was applied to the amputated pulp. As a control, 50 ng of MMP3 and 30 nmol NNGH adsorbed in spongel was applied to the amputated pulp. The cavity was temporally sealed with a bonding agent and a photopolymerization type composite resin (Unifil low flow, GC, Tokyo). 24 hours, 72 hours, or 7 days after application, the paraffin sections of the 5 μm thickness were examined morphologically after HE staining or Masson Trichrome staining.
# For quantitative analysis of newly formed blood vessels, each 5 frozen sections at 24 hours after treatment both with MMP3 and control PBS from 4 incisors each, total 40 sections were stained with Fluorescein Griffonia (Bandeiraea) Simplicifolia lectin (BS1-lectin) as described above. Three rectangles of a standardized size (0.1 mm^2) were drawn in the upper part of pulp tissue under the amputated site in every five sections from one sample. The lectin-positive area relative to total area (1.5 mm^2) was quantitatively analyzed in a standardized procedure using BZ-II Analyzer (Keyence) software on a Keyence BZ-9000 fluorescence microscope (Keyence, Tokyo, Japan). The data were presented as means±standard deviation at 4 determinations.
# To evaluate effect of MMP3 on proliferation, immunohistochemical analysis of Proliferating Cell Nuclear Antigen (PCNA) was performed. Paraffin sections of 24 hours after treatment were deparaffinized and antigen was retrieved by antigen unmasking solution (Vector Laboratories, Burlingame, Calif.) according to the manufacturer's instructions. Endogenous peroxidase activity and nonspecific staining were blocked as described earlier. The sections were incubated with anti-PCNA antibody (Dako) at dilutions of 1:100 in antibody diluent (Dako) overnight at 4° C., and further incubated with a peroxidase-conjugated secondary antibody (ImmPRESS reagent; Vector Laboratories) for 30 min at room temperature. After development by DAB Liquid System (Dako), sections were counterstained with hematoxylin, and photographed on an Olympus Vanox-s microscope (Olympus, Tokyo, Japan). For quantitative analysis of proliferating cells, each 3 paraffin sections at 24 hours after treatment both with MMP3 and control PBS from 4 incisors each were used. Three rectangles of a standardized size (0.1 mm^2) were drawn in the upper part of pulp tissue under the amputated site in every 3 sections. The positive staining cells were counted and quantitatively analyzed. The data were presented as means±standard deviation at 4 determinations.
# For quantitative analysis of matrix formation, each 5 paraffin sections at 72 hours after treatment both with MMP3 and control PBS from 4 incisors each, and 5 sections at 7 days after treatment with MMP3, NNGH, and control PBS from 4 incisors each were stained with Masson's trichrome staining. The positive area was quantitatively analyzed in the upper part of pulp tissue under the amputated site, 2 mm in depth from the amputated site, using BZ-II Analyzer software. The data were presented as means±standard deviation at 4 determinations.
# [5] = test system: amputated pulp of dog upper premolar teeth; test: Dog pulpotomy model; assay type: in vivo; conditions: 100 ng MMP3 in spongel, 14 days
# Protocol: After pulpotomy of dog upper premolar teeth, the amputated pulp was washed with 5% sodium hypochlorite solution and 3% hydrogen peroxide and further was washed with a saline, 100 ng of MMP3 absorbed in spongel was applied on the amputated pulp. Furthermore, the cavity was provisionally filled with phosphate cement and sealed with a chemical polymerization composite resin after application of a bonding agent. The tooth was extracted 14 days after treatment and fixed with 4% paraformaldehyde fixation at 4° C. overnight and decalcified at 4° C. in 10% formic acid for one week. Reparative dentin formation was observed after HE staining under light microscopy in the longitudinal paraffin 5 μm-section.
# [6] = test system: pulp cells from rat upper incisor; test: Induction of odontoblast differentiation using pulp cells (Dspp, enamelysin real-time RT-PCR); assay type: cell-based; conditions: MMP3 100 ng/ml, 14 days and 21 days
# Protocol: Pulp cells were isolated from rat upper incisor by the trypsin and collagenase digestion method and cultured in DMEM (Sigma, St. Louis, Mo., USA) including L-ascorbic acid phosphoric acid magnesium salt (Wako pure medicine) and 10% of […] fetal bovine serum (SAFC Biosciences, Lenexa, Kans., USA) and 100 unit/ml penicillin G, 100 μg/ml streptomycin (Invitrogen, Carlsbad, Calif., USA). MMP3 was added 100 ng/ml of MMP3, or 0.13 μmol of NNGH and 50 ng/ml human recombinant BMP2 to the cells at second passage of culture after confluence. Total RNA was extracted 14 days or 21 days after and analyzed expression of odontoblastic differentiation markers, dentin sialophosphoprotein (Dspp) and enamelysin by Real-time RT-PCR (table 1). […] When MMP3 was added, the differentiation inductive effect into odontoblasts in particular was […] in comparison without adding MMP3 of the control 14 days and 21 days after treatment.
# [7] = test system: inflamed pulp (pulpitis) of dog upper premolar tooth; test: Dog pulpitis model; assay type: in vivo
# Protocol: The inflammation of the pulp was produced be open with cotton for 24 hours after pulpotomy in the dog upper premolar tooth. Subsequently 100 ng of MMP3 absorbed in spongel was applied to the amputated pulp after washing with 5% sodium hypochlorite solution and 3% hydrogen peroxide and further with a saline. Furthermore, the cavity was filled with phosphate cement and temporally sealed with a chemical polymerization composite resin after application with a bonding agent. The tooth was extracted 14 days later, immersed at 4° C. overnight and followed by fixation and decalcification at 4° C. in 10% formic acid for one week. The reparative dentin formation was observed by an light microscope after H.E. staining at 5 μm-paraffin sections. FIG. 11A is a figure of micrograph showing healing of pulpitis state 14 days after MMP3 application in the upper premolar tooth of the dog in which pulpitis had been produced. FIG. 11B is a figure of micrograph of the high power to show healing of pulpitis state 14 days after MMP3 application in the upper premolar tooth of the dog in which pulpitis had been produced. FIG. 11C is a figure of micrograph 14 days in case of the PBS control of the upper premolar tooth of the dog in which pulpitis produces had been produced. FIG. 11D is a figure of micrograph of the high power 14 days in case of the PBS control of the upper premolar tooth of the dog n which pulpitis had been produced.
compound,measurement,setting,value
MMP10/Stromelysin-2: MMP-10 (R&D Systems); an isomer of MMP3,migration effect,"HUVEC [1]; HUVEC, 50 ng/ml of MMP10",did not have
same,anti-apoptotic effect,"HUVEC [2]; 50 ng/ml of MMP10, staurosporine 100 nM",did not have
same,proliferative effect,[3]; MMP-10 50 ng/mL,did not have
"COc1ccc(S(=O)(=O)N(CC(=O)NO)CC(C)C)cc1 [NNGH, N-Isobutyl-N-(4-methoxyphenylsulfonyl)-glycylhydroxamic acid, reference compound]",migration effect of MMP3 when NNGH added at the same time,"HUVEC [1]; HUVEC, 100 ng/ml MMP3 and 0.13 μmol NNGH",inhibited
same,anti-apoptotic effect of MMP3 when NNGH added at the same time,"HUVEC [2]; 50 ng/ml MMP3 with 0.13 μmol NNGH, staurosporine 100 nM",inhibited
same,dentin matrix formation in comparison with PBS control group,"[4]; 7 days after pulpotomy, P<0.01",Significant decrease
same,proliferative effect of MMP3 when NNGH added at the same time,[3]; MMP3 50 ng/mL with NNGH 0.13 μM,restrained
same,proliferative effect in comparison with the no addition group of MMP3,[3]; NNGH added,almost the same
"CN[C@@H]1C[C@H]2O[C@@](C)([C@@H]1OC)n1c3ccccc3c3c4c(c5c6ccccc6n2c5c31)C(=O)NC4 [Staurosporine, reference compound]","apoptosis, % of cells","HUVEC [2]; Staurosporine 100 nM alone, four hours",52%
"MMP3: human MMP3 (Chemicon); protein of the MMP family, referred to as stromelysin 1; active ingredient of the medicament",migration promotion effect on HUVEC in comparison with control,"HUVEC [1]; 10 ng/ml, 24 hours",significant difference was not detected
same,"migration of HUVEC, increase compared with the control","HUVEC [1]; 100 ng/ml, 24 hours, control 0.02% bovine serum albumin",approximately 3.5 times
same,cell proliferation in the vicinity of the amputated surface,[5],a large number
same,reparative dentin formation in the upper part of the amputated pulp,[5],a large quantity
same,apoptotic cells,"HUVEC [2]; MMP3 50 ng/ml added at the same time of Staurosporine 100 nM, four hours",20%
same,PCNA positively staining cells,"[4]; 50 ng MMP3, 24 hours after pulpotomy, pulp under the amputated site",98.5 cells/mm^2
same,increase of the vascularization density versus PBS group,"[4]; 50 ng MMP3, 24 hours, BS1-lectin positive area",double
same,"newly formed blood vessels stained with BS1-lectin under the amputated surface, in comparison with MMP3 free group","[4]; 50 ng MMP3 in spongel, 24 hours after pulpotomy",more detected
same,"PCNA positively staining cells, increase versus non applied group",[4]; 24 hours after pulpotomy,2.7 times
same,osteodentin formation around newly differentiated odontoblasts/osteodentinoblasts (Masson's Trichrome staining),[4]; 72 hours after application,observed
same,DSPP mRNA expression in newly differentiated odontoblasts/osteodentinoblasts (in situ hybridization),[4]; 72 hours after pulpotomy,seen
same,amount of osteodentin in comparison with non applied MMP3 (HE staining),[4]; 72 hours after pulpotomy,larger amount
same,inflammatory cell infiltration (HE staining),[4]; 72 hours after pulpotomy,not observed
same,"dentin matrix formation under the amputated site, increase in comparison with PBS control group","[4]; 72 hours after pulpotomy, P<0.01",3.8 times
same,"differentiation inductive effect into odontoblasts (Dspp, enamelysin mRNA) in comparison with control without MMP3",[6],not seen
same,proliferation under the amputated pulp,"[7]; 100 ng MMP3, 14 days",seen
same,reparative dentin formation,"[7]; 100 ng MMP3, 14 days",sometimes observed
same,vascularization,"[7]; 100 ng MMP3, 14 days",enhanced
same,inflammation state of the pulp,"[7]; 100 ng MMP3 in spongel, 14 days",very slight
same,"increase of proliferation, 48-hour application in comparison with 2-hour application",[3]; MMP3 50 ng/mL,approximately 10 times
